Our source for the IC50 and Tumor volume values is patent US7541367B2, “3-benzoimidazolyl-pyrazolopyridines useful in treating kinase disorders” (Janssen Pharmaceutica, N.V., priority 2005, dated 2009).

One test has as its target T1, CDK1 (Homo sapiens, UniProt P06493).
T1 construct: purchased New England Biolabs, Beverly, Mass; 6020; host or cells: insect cells
The test is described as follows: CDK-1 kinase screening assay (33P-ATP FlashPlate). Format: biochemical. The note with it: human CDK1 with cyclin B; 10 μM ATP; 1 hr at 30° C.

A further test deals with T2, Aurora-A (Mus musculus, UniProt P97477).
T2 construct: polyhistidine (N)
T2 sequence (P97477 1-395): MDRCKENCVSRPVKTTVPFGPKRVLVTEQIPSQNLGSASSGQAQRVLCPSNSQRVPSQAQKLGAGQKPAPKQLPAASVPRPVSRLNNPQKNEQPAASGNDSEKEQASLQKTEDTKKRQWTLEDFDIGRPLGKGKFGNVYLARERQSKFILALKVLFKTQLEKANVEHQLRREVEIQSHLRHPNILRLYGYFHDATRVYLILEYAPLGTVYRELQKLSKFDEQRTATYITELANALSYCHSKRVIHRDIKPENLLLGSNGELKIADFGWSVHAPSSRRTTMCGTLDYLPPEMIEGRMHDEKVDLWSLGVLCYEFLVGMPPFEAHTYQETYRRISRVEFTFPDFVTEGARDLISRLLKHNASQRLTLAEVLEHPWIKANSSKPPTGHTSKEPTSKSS
The test is described as follows: Aurora-A kinase screening assay (33P-ATP FlashPlate).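 Note: His-tagged mouse Aurora-A phosphorylating a biotinylated peptide captured on streptavidin plates, read as 33P uptake by scintillation counting, 1% DMSO, inhibition scaled between per-plate maximum and minimum signals.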 Type of test: biochemical. The conditions noted are these: 10 μM ATP, 1 hr at 30° C.

Test [1] concerns Human melanoma A375 cells. Description: In Vivo Models - Inhibition of Tumor Growth (A375 xenograft). The conditions noted are these: female athymic mice, 25 mg/kg i.p. daily. The protocol: The ability of test compounds to inhibit unregulated growth of human tumor cells in vivo was evaluated by implanting human tumor cells into the hindflank of athymic mice, administering a test compound and then quantifying any change in tumor size.
Certain compounds at particular doses produced adverse effects in this model. One skilled in the art would be able to establish the effective amount of compound required to achieve an effective therapeutic window.
Human melanoma A375 cells were implanted subcutaneously into the hindflank of female athymic mice (Charles River) and allowed to grow for 6-10 days. After a measurable tumor was established (as determined by baseline caliper measurement), the animal was administered an intraperitoneal (i.p.) dose of the test compound daily at 25 mg/kg for the length of the study. Tumor size was measured at certain intervals as shown in Table 5 and the degree of inhibition for a test compound was determined by comparing the reduction in tumor volume for drug-treated animals to that of untreated and vehicle-treated animals. The vehicle used was 20% hydroxypropyl β-cyclodextran.

In a further test the target is T3, VEGF-R2 (Rattus norvegicus, UniProt O08775).
T3 construct: polyhistidine (N)
Description: VEGF-R2 kinase screening assay (33P-ATP FlashPlate).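 Note: Read-out is ³³P incorporation from ³³P-γ-ATP into biotinylated peptide substrate captured on streptavidin FlashPlate, counted by scintillation, 1% DMSO final, inhibition scaled between per-plate maximum and minimum signals.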 Format: biochemical. The note with it: rat VEGF-R2 kinase domain; 10 μM ATP; 1 hr at 30° C.

The target in another test is T4, HER2 (Homo sapiens, UniProt P04626).
T4 construct: GST (Glutathione-S-Transferase) (N); HIS6 (N); thrombin cleavage site (N); purchased Proqinase, Freiburg, Germany
Description: HER2 kinase screening assay (33P-ATP FlashPlate).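 Note: Biotin-poly(GT) 4:1 peptide captured on streptavidin FlashPlate, 33P transfer from γ-ATP read by scintillation counting, lower incorporation means inhibition, 1% DMSO final, 100 µL reaction.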 Format: biochemical. The note with it: GST-HIS6 HER-2 aa 679 to 1255; 10 μM ATP; 1 hr at 30° C.

The next test deals with T5, c-Src kinase (Homo sapiens, UniProt P12931).
T5 construct: purchased Upstate Biotechnology, Lake Placid, N.Y
Description: c-Src Kinase Assay. Format: biochemical. The note with it: 5 μM ATP. An outline of the steps: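 Human c-Src phosphorylated Cdc2 peptide (100 μM) […]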

Another test deals with T6, Lyn kinase (Homo sapiens, UniProt P07948).
T6 construct: purchased Upstate Biotechnology, Lake Placid, N.Y
The test is described as follows: Lyn Kinase Assay. The conditions noted are these: 5 μM ATP. Format: biochemical. Put shortly: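 Recombinant human Lyn kinase in pH 7.5 Tris buffer with EGTA, vanadate, β-mercaptoethanol and BSA reacted with compound for 40 min at 30° C. The radiolabelled product was captured on P30 filtermats after phosphoric acid stop and counted by scintillation. IC50 came from percent inhibition versus log concentration, using plate maximum/minimum signals.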

Test [2] concerns HeLa cervical adenocarcinoma. Description: Cell Proliferation Inhibition Assay (14C-thymidine incorporation), HeLa.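 Note: test compound in DMSO added to cells seeded in scintillating 96-well plates, DMSO-only wells as control, uptake of methyl 14C-thymidine into new DNA counted.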 Format: cell-based. The conditions noted are these: Homo sapiens, HeLa, HeLa cells. (In general: Uptake of a labelled nucleoside into DNA is a usual measure of proliferation.)
The subject of a further test is A375 malignant melanoma. The test is described as follows: Cell Proliferation Inhibition Assay (14C-thymidine incorporation), A375.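 Note: proliferation measured by radiolabelled thymidine uptake into new DNA, counted in scintillating 96-well plates, compound-treated wells compared with DMSO-only control wells.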 Type of test: cell-based. The conditions noted are these: Homo sapiens, A-375, A375 cells.
In another test the test system is HCT-116 colon carcinoma. The test is described as follows: Cell Proliferation Inhibition Assay (14C-thymidine incorporation), HCT-116.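 Note: proliferation measured as methyl 14C-thymidine uptake into new DNA, counted in 96-well scintillating microplates, compared with DMSO-only control wells.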 Type of test: cell-based. The conditions noted are these: Homo sapiens, HCT-116, HCT-116 cells.

Some results are limits rather than exact numbers.

T3 sequence (O08775 786-1343): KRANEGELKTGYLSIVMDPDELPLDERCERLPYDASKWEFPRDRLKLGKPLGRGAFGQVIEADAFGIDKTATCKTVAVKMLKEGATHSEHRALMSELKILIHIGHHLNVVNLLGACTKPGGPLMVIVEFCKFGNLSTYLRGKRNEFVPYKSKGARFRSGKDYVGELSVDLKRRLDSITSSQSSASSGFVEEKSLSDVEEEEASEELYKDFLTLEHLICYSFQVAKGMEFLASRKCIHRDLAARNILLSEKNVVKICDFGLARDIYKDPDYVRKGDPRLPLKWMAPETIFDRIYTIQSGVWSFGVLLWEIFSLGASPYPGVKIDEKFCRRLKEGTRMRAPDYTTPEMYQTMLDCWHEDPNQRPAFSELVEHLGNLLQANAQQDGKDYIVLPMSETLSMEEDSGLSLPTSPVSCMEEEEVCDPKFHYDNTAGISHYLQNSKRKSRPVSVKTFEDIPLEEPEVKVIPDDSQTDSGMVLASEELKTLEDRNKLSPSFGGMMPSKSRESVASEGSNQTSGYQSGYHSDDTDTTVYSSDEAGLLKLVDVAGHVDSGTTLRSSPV
T4 sequence (P04626 679-1255): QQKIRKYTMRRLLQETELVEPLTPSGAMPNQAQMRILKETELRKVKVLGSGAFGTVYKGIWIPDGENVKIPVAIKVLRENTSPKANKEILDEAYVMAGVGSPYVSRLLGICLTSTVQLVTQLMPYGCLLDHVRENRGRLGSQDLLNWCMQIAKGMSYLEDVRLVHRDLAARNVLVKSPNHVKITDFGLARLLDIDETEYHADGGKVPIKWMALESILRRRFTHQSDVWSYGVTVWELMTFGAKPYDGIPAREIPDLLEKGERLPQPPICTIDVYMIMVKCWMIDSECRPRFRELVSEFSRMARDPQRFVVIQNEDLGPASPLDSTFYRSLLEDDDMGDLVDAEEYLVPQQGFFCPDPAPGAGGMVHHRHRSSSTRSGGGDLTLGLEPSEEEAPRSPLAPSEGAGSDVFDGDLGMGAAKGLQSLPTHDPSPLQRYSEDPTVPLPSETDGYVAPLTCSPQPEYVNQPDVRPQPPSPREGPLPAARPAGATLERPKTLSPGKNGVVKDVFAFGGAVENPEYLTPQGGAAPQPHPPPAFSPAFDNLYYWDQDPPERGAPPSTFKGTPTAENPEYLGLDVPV
T1 sequence (P06493 whole entry): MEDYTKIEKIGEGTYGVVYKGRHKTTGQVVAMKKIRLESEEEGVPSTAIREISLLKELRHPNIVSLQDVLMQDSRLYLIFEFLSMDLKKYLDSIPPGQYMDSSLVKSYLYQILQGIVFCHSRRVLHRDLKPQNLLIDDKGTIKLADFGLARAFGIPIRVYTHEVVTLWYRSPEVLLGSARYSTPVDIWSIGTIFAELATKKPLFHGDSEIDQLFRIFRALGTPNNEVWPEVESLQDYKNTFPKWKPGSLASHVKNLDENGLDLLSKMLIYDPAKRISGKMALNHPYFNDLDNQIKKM
T1 sequence (P14635 whole entry partner): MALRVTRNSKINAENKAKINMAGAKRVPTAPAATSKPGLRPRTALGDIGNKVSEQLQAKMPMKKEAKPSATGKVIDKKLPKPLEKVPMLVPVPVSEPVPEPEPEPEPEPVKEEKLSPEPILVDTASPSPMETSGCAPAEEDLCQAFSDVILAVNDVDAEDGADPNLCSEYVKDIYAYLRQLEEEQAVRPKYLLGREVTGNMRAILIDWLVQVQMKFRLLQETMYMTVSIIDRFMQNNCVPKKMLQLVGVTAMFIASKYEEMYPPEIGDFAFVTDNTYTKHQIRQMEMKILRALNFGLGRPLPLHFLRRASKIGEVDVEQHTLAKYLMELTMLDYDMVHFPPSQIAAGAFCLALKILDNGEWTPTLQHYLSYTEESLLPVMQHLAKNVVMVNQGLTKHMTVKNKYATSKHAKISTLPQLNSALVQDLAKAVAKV
T6 sequence (P07948 whole entry): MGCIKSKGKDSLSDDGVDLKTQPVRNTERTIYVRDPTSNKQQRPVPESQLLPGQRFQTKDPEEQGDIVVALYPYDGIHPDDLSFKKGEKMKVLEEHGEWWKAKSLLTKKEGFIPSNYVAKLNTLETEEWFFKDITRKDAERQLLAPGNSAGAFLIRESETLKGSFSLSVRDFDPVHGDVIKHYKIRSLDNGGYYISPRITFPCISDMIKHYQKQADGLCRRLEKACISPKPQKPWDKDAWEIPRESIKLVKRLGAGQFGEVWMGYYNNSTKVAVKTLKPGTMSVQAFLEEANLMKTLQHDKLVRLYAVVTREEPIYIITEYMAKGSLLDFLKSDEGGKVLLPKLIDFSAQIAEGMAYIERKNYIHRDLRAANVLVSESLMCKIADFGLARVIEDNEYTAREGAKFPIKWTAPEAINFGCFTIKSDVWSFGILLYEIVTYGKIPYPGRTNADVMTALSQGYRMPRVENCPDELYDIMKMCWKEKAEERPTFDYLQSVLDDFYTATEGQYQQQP
T5 sequence (P12931 whole entry): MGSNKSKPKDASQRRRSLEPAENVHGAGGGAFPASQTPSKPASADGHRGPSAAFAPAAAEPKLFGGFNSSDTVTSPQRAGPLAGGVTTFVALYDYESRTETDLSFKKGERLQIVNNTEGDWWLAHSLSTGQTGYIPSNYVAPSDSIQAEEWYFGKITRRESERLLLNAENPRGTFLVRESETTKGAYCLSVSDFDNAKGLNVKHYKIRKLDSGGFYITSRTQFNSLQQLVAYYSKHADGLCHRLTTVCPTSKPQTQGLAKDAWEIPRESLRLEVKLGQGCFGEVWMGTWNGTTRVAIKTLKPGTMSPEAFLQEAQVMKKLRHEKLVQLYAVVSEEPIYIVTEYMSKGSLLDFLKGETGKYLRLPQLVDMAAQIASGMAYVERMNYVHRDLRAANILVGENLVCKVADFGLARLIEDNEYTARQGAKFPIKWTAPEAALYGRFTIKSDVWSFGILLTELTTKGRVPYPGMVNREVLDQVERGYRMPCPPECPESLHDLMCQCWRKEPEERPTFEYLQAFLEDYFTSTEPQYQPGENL

Turning to `CCCNCc1cncc(-c2cnc3[nH]nc(-c4nc5c(COC)cccc5[nH]4)c3c2)c1` [Cpd 78, {5-[3-(4-methoxymethyl-1H-benzoimidazol-2-yl)-1H-pyrazolo[3,4-b]pyridin-5-yl]-pyridin-3-ylmethyl}-propyl-amine], the IC50 is 7.4 nM on CDK1 and 3990 nM on Aurora-A. Besides, the Tumor volume in [1] (Day 1) was found to be 95.4 mm^3; in test [1] (Day 4) it was 113.6 mm^3; in [1] (Day 8), 329.3 mm^3; in test [1] (Day 11), 558 mm^3; in test [1] (Day 14), 856.9 mm^3.

On to `CCNCc1cncc(-c2cnc3[nH]nc(-c4nc5cc(N6CCN(C)CC6)ccc5[nH]4)c3c2)c1` [Cpd 82, ethyl-(5-{3-[5-(4-methyl-piperazin-1-yl)-1H-benzoimidazol-2-yl]-1H-pyrazolo[3,4-b]pyridin-5-yl}-pyridin-3-ylmethyl)-amine], for which the IC50 was determined as 3.05 nM on CDK1; 25 nM on VEGF-R2; 1070 nM at HER2; 283 nM against Aurora-A; 712 nM against c-Src kinase; 415 nM on Lyn kinase. The IC50 amounted to 474 nM in test [2], 627 nM in the test with A375 malignant melanoma and 543 nM in the test with HCT-116 colon carcinoma. Besides, the Tumor volume is listed as 97.7 mm^3 in [1] (Day 1); 222 mm^3 in [1] (Day 4); 455.5 mm^3 in [1] (Day 8); 742.4 mm^3 in test [1] (Day 11); 1323.6 mm^3 in test [1] (Day 14).

For `CCNCc1cncc(-c2cnc3[nH]nc(-c4nc5ccc(F)cc5[nH]4)c3c2)c1` [Cpd 106, ethyl-{5-[3-(6-fluoro-1H-benzoimidazol-2-yl)-1H-pyrazolo[3,4-b]pyridin-5-yl]-pyridin-3-ylmethyl}-amine], the IC50 is 0.7 nM on CDK1; 154 nM against VEGF-R2; 5120 nM against HER2; 803 nM against Aurora-A; 58.6 nM in test [2]; 51.2 nM with A375 malignant melanoma. In the test with HCT-116 colon carcinoma, the IC50 was 93.7 nM. Moreover, the Tumor volume in test [1] (Day 1) was found to be 95.4 mm^3; in test [1] (Day 4) it was 94.7 mm^3; in test [1] (Day 8), 318.6 mm^3; in test [1] (Day 11), 558.3 mm^3; in test [1] (Day 14), 896.8 mm^3.

For `CCNCc1cncc(-c2cnc3[nH]nc(-c4nc5cc(F)c(F)cc5[nH]4)c3c2)c1` [Cpd 107, {5-[3-(5,6-difluoro-1H-benzoimidazol-2-yl)-1H-pyrazolo[3,4-b]pyridin-5-yl]-pyridin-3-ylmethyl}-ethyl-amine], the IC50 is 1.1 nM against CDK1; roughly 100 nM on VEGF-R2; 3600 nM against HER2; greater than 1000 nM against Aurora-A; 138 nM in test [2]; 46.1 nM with A375 malignant melanoma. In the test on HCT-116 colon carcinoma, this molecule came in with an IC50 of 94.7 nM. Besides, the Tumor volume in [1] (Day 1) came to 95.4 mm^3.

For orientation: IC50 means the midpoint of a concentration-inhibition curve.
